Experimental data reported in patent publication US4006204A, “Phosphoric acid diesters” (priority 1975, dated 1977).
Like-named read-outs stand apart in the source and are kept apart here.

Experiments:
[1] = test system: prostaglandin receptor; experiment: Blocking of prostaglandin receptor activity, guinea pig ileum vs Prostaglandin E2; type: biochemical; conditions: for prostaglandin receptor blocking activity (conclusion in words): summary of Table 1
Protocol: The following compounds were tested for their biological activity in blocking prostaglandin receptor activity. This test is useful in that many kinds of inflammation are at least partially prostaglandin mediated. Table 1 below tabulates the results.
^1 PGE2 : Guinea pig ileum IC50 vs Prostaglandin E2

[2] = target: T1, prostaglandin synthetase (Bos taurus, UniProt O62664); experiment: Prostaglandin synthetase inhibition (procedure of Flower et al.); type: biochemical, bovine
T1 construct: enzyme source was bovine; from tissue; host or cells: bovine seminal vesicles
T1 sequence (O62664 25-600): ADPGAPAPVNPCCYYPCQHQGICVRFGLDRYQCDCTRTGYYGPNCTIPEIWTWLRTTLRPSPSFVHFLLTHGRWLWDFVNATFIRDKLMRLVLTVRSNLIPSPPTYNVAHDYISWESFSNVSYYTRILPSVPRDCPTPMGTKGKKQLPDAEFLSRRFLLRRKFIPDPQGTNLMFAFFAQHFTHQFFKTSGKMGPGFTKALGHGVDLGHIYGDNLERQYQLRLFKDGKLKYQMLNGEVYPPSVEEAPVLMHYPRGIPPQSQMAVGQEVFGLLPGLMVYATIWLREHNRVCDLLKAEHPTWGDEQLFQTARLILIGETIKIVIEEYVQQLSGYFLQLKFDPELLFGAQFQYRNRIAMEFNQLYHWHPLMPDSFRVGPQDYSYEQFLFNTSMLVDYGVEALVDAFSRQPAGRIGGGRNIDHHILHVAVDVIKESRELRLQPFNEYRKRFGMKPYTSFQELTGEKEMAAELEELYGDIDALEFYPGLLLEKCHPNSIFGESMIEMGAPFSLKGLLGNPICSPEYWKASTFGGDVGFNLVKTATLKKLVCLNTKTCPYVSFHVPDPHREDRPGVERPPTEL
Protocol: Compounds were tested for prostaglandin synthetase inhibition via the procedure of Flower et al. (Prostaglandins 4: 325, 1973).

[3] = test system: croton oil-induced rat ear edema; experiment: Tonelli anti-inflammatory animal test, croton oil-induced rat ear edema; type: in vivo; conditions: for % protection at 0.3% / % protection at 1.0% / % protection at 3.0%: croton oil rat ear edema; for potency in reducing edema produced by croton oil (conclusion in words): compared with hydrocortisone, summary of Table 4
Protocol: The following compounds were tested in the standard Tonelli anti-inflammatory animal test model for their effectiveness in preventing croton oil-induced rat ear edema.

[4] = test system: mouse diarrhea induced by intraperitoneal prostaglandin E2; experiment: Prevention of mouse diarrhea induced by intraperitoneal prostaglandin E2 injection; type: in vivo; conditions: for ED50: Mus musculus, ip, administered intraperitoneally
Protocol: Compounds 1 and 2 of Table 2 were tested for their effectiveness in preventing mouse diarrhea induced by intraperitoneal prostaglandin E2 injection. The data are summarized below in Table 5:
^1 dose administered i.p.

[5] = enzyme source bovine seminal vesicles

| prostaglandin synthetase inhibition at 50 μM [2, 5] | SMILES | prostaglandin receptor blocking activity (conclusion in words) [1] | IC50 [2] [µM] | prostaglandin synthetase blocking (conclusion in words) ([2]; compared with indomethacin, summary of Table 3) | % protection at 0.3% [3] [%] | % protection at 1.0% [3] [%] | % protection at 3.0% [3] [%] | potency in reducing edema produced by croton oil (conclusion in words) [3] | % prevention of diarrhea ([4]; 30 Mg/kg i.p.) [%] | % prevention of diarrhea ([4]; 60 Mg/kg i.p.) [%] | % prevention of diarrhea ([4]; 100 Mg/kg i.p.) [%] | ED50 [4] [mg/kg] | Guinea pig ileum inhibition vs Prostaglandin E2 ([1]; Guinea pig ileum, vs PGE2, at 30 × 10^^-6) | IC50 ([2]; enzyme source bovine seminal vesicles, read-out: ID50 vs Prostaglandin E2 (prostaglandin synthetase inhibition)) [µM] |
| --- | --- | --- | --- | --- | --- | --- | --- | --- | --- | --- | --- | --- | --- | --- |
|  | CC(OP(=O)(O)Oc1ccccc1)c1ccc(C2CCCCC2)c(Cl)c1 (stereo not drawn) [Compound 1] | prostaglandin receptor blockers | 18 | effective blocker of prostaglandin synthetase, comparable in effect to indomethacin | 0.0 | 23.4 | 53.8 | approximately as potent as hydrocortisone | 0 | 60 | 70 | ~60 |  |  |
|  | CC(COP(=O)(O)Oc1ccccc1)c1ccc(C2CCCCC2)c(Cl)c1 (stereo not drawn) [Compound 2] | prostaglandin receptor blockers | 50 |  | 15.9 | 51.3 | 65.4 | approximately as potent as hydrocortisone | 40 | 50 | 70 | ~60 |  |  |
|  | CC(C(=O)O)c1ccc(C2CCCCC2)c(Cl)c1 (stereo not drawn) [Compound 3] | weak or have no prostaglandin-blocking activity |  |  |  |  |  |  |  |  |  |  | No inhibition | 2 to 4 |
| no inhibition | CC(CO)c1ccc(C2CCCCC2)c(Cl)c1 (stereo not drawn) [Compound 4, reference compound] | weak or have no prostaglandin-blocking activity |  |  |  |  |  |  |  |  |  |  |  |  |
| insignificant | CC(O)c1ccc(C2CCCCC2)c(Cl)c1 (stereo not drawn) [Compound 5, reference compound] |  |  |  |  |  |  |  |  |  |  |  |  |  |
|  | C[C@]12CCC(=O)C=C1CC[C@@H]1[C@@H]2[C@@H](O)C[C@@]2(C)[C@H]1CC[C@]2(O)C(=O)CO [hydrocortisone, reference compound] |  |  |  | 13.8 | 45.9 | 68.7 |  |  |  |  |  |  |  |
